The subject of test [1] is HCT-116. Put plainly: Antiproliferative activity against human HCT-116 cells assessed as cell growth inhibition measured after 48 hrs by CCK8 assay. It is filed as functional, cell-based. Conditions: HCT-116, 48 h.
The species named for test [2] is Sus scrofa. The experiment in a line: Inhibition of pig brain tubulin polymerization at 3 uM by spectrophotometry.
Test [3] concerns the target Tubulin (Homo sapiens) (UniProt P68371+Q9H4B7+P0DPH7+P68366+Q13509+Q71U36+P04350+Q3ZCM7+P07437+P68363+Q9BQE3+Q6PEY2+Q13885+Q9BVA1+Q9BUF5). Put plainly: Inhibition of tubulin polymerization in human KYSE-30 cells assessed as microtubule assembly at 0.1 uM measured after 48 hrs by immunofluorescence assay. It is filed as cell-based.
The test system of test [4] is KYSE-30. Put plainly: Down regulation of CDK1 protein expression in human KYSE-30 cells at 80 to 100 nM for 48 hrs by western blot analysis. Conditions: dose 80-100 nM. It is filed as functional, cell-based.
In test [5] the test system is KYSE-450. The experiment in a line: Down regulation of CDK1 protein expression in human KYSE-450 cells at 80 to 100 nM for 48 hrs by western blot analysis. It counts as functional, cell-based. Conditions: dose 80-100 nM.
Test [6] relates to KYSE-30. Put plainly: Down regulation of CDC25C protein expression in human KYSE-30 cells at 80 to 100 nM for 48 hrs by western blot analysis. It counts as functional, cell-based. Conditions: dose 80-100 nM.
The subject of test [7] is KYSE-450. The experiment in a line: Down regulation of CDC25C protein expression in human KYSE-450 cells at 80 to 100 nM for 48 hrs by western blot analysis. It is filed as functional, cell-based. Conditions: dose 80-100 nM.
For test [8], the system named is KYSE-30. The experiment in a line: Induction of apoptosis in human KYSE-30 cells assessed as apoptotic cells at 80 nM measured after 48 hrs by annexin-V-FITC and PI staining based flow cytometry analysis (reference value: 8.1667 %). It counts as functional.
The subject of test [9] is KYSE-450. The experiment in a line: Induction of mitochondrial membrane potential loss in human KYSE-450 cells assessed as downregulation of Bcl-2 protein at 80 to 100 nM measured after 48 hrs by western blot analysis. It is filed as functional, cell-based. Conditions: dose 80-100 nM.
The test system of test [10] is KYSE-30. The experiment in a line: Induction of mitochondrial membrane potential loss in human KYSE-30 cells assessed as Bcl-xL expression at 80 to 100 nM measured after 48 hrs by western blot analysis. It counts as functional, cell-based. Conditions: dose 80-100 nM.
In test [11] the test system is KYSE-30. The experiment in a line: Induction of mitochondrial membrane potential loss in human KYSE-30 cells assessed as Mcl-1 expression at 80 to 100 nM measured after 48 hrs by western blot analysis. It counts as functional, cell-based. Conditions: dose 80-100 nM.
The subject of test [12] is KYSE-30. Put plainly: Antiproliferative activity against human KYSE-30 cells assessed as cell viability measured up to 48 hrs by CCK8 assay. Conditions: time hrs <=48, TDE = time-dependent effect. It is filed as functional, cell-based.
The subject of test [13] is KYSE-450. The experiment in a line: Induction of mitochondrial membrane potential loss in human KYSE-450 cells assessed as mitochondrial depolarization at 80 to 100 nM measured after 48 hrs by JCI staining based flow cytometry. Conditions: dose 80-100 nM. It counts as functional, cell-based.

Among the data in ChEMBL document CHEMBL5042512 (Eur J Med Chem, 2022) are IC50, inhibition and Activity values, retold here.

The structures appear in SMILES notation. Active and inactive are the calls of the source. The calls are words filed in the database; no cut-off is given here.

Turning to `COc1ccc(CN(C(=O)CSC(=S)N2CCN(C(=O)OC(C)(C)C)CC2)c2cc(OC)c(OC)c(OC)c2)cc1O`, the IC50 in test [1] came to 0.128 µM. For the same compound, the inhibition result in [2] and in [3] was “Active” in each case. In addition, the Activity entry in [4] is “Dose-Dependent Effect”; in test [5] it was “Dose-Dependent Effect”; in test [6], “Dose-Dependent Effect”; in test [7], “Dose-Dependent Effect”; in test [8], 23.8%; in test [9], “Dose-Dependent Effect”. The result in test [10] and in test [11] was inactive. Further, in test [12], the inhibition entry is “Tde”. Besides, the result in test [13] was Active.
